The text below walks through data of ChEMBL document CHEMBL1153282, “N-substituted 2'-(aminoaryl)benzothiazoles as kinase inhibitors: hit identification and scaffold hopping” (Bioorg Med Chem Lett, 2009).

A word on the IC50: it is the concentration needed to halve the response being measured. Lower therefore signals greater potency in that assay.

The target of test [1] is Insulin receptor (Homo sapiens, UniProt P06213). Nature of the test: Inhibition of insulin receptor by virtual HTS assay.
In test [2] the target is T1, Aurora kinase A (Homo sapiens, UniProt O14965).
T1 sequence (O14965 whole entry): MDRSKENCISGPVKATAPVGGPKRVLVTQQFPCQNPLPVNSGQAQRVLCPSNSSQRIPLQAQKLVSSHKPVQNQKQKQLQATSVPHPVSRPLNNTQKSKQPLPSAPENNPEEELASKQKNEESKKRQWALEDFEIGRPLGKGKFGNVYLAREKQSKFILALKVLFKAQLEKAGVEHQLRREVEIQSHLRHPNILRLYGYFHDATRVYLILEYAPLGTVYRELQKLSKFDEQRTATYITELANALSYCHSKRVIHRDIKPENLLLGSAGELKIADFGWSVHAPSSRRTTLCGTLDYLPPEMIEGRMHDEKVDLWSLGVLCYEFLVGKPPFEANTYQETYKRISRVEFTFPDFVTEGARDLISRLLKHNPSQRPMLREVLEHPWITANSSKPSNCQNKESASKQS
Kind of test: Inhibition of Aurora A by virtual HTS assay.

For test [3], the target named is Aurora kinase B (Homo sapiens, UniProt Q96GD4). Kind of test: Inhibition of Aurora B by virtual HTS assay.
For test [4], the target named is Platelet-derived growth factor receptor beta (Homo sapiens, UniProt P09619). Kind of test: Inhibition of PDGFRbeta by virtual HTS assay.
Test [5] addresses Vascular endothelial growth factor receptor 2 (Homo sapiens, UniProt P35968). Nature of the test: Inhibition of VEGFR2 by virtual HTS assay.
Test [6] has as its target Angiopoietin-1 receptor (Homo sapiens, UniProt Q02763). Nature of the test: Inhibition of TIE2 by virtual HTS assay.
Test [7] concerns the target T2, Ephrin type-B receptor 4 (Homo sapiens, UniProt P54760).
T2 sequence (P54760 whole entry): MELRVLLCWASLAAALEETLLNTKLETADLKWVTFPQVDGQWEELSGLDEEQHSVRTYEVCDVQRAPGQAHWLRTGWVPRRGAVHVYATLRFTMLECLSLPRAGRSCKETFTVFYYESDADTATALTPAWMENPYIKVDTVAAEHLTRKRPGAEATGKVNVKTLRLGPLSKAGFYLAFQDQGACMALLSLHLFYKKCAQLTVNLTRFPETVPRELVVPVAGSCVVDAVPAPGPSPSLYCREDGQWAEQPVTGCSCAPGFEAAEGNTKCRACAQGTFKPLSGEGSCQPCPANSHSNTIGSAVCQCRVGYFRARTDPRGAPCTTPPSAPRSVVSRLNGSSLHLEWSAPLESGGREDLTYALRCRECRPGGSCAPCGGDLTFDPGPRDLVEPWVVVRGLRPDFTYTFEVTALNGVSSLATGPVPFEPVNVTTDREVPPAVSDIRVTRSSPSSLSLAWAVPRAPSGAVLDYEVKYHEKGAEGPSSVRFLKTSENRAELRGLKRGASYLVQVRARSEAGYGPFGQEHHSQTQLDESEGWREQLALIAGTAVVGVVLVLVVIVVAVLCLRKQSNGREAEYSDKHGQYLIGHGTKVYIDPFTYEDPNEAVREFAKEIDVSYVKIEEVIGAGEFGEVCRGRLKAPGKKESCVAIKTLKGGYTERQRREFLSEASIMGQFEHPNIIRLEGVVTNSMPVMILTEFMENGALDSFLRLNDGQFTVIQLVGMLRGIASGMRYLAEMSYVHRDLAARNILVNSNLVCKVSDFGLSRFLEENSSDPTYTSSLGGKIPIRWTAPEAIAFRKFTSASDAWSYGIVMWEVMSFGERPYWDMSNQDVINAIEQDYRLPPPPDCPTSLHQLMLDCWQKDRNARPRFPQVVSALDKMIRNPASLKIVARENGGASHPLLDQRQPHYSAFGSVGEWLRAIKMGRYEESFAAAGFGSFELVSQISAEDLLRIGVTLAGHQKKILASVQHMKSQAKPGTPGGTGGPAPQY
Nature of the test: Inhibition of EphB4 by virtual HTS assay.

In test [8] the target is Vascular endothelial growth factor receptor 3 (Homo sapiens, UniProt P35916).
Description: Inhibition of VEGFR3 by virtual HTS assay
Test [9] concerns the target Proto-oncogene tyrosine-protein kinase Src (Homo sapiens, UniProt P12931). Nature of the test: Inhibition of Src by virtual HTS assay.
Test [10] deals with Epidermal growth factor receptor (Homo sapiens, UniProt P00533). Nature of the test: Inhibition of EGFR by virtual HTS assay.
Test [11] deals with Insulin-like growth factor 1 receptor (Homo sapiens, UniProt P08069). Kind of test: Inhibition of IGF1R by virtual HTS assay.
Test [12] concerns the target Cyclin-dependent kinase 2 (Homo sapiens, UniProt P24941). Nature of the test: Inhibition of CDK2 by virtual HTS assay.
The target of test [13] is Focal adhesion kinase 1 (Homo sapiens, UniProt Q05397). Kind of test: Inhibition of FAK by virtual HTS assay.
For test [14], the target named is Cyclin-dependent kinase 4 (Homo sapiens, UniProt P11802). Nature of the test: Inhibition of CDK4 by virtual HTS assay.

Angiopoietin-1 receptor, sequence (Q02763 whole entry): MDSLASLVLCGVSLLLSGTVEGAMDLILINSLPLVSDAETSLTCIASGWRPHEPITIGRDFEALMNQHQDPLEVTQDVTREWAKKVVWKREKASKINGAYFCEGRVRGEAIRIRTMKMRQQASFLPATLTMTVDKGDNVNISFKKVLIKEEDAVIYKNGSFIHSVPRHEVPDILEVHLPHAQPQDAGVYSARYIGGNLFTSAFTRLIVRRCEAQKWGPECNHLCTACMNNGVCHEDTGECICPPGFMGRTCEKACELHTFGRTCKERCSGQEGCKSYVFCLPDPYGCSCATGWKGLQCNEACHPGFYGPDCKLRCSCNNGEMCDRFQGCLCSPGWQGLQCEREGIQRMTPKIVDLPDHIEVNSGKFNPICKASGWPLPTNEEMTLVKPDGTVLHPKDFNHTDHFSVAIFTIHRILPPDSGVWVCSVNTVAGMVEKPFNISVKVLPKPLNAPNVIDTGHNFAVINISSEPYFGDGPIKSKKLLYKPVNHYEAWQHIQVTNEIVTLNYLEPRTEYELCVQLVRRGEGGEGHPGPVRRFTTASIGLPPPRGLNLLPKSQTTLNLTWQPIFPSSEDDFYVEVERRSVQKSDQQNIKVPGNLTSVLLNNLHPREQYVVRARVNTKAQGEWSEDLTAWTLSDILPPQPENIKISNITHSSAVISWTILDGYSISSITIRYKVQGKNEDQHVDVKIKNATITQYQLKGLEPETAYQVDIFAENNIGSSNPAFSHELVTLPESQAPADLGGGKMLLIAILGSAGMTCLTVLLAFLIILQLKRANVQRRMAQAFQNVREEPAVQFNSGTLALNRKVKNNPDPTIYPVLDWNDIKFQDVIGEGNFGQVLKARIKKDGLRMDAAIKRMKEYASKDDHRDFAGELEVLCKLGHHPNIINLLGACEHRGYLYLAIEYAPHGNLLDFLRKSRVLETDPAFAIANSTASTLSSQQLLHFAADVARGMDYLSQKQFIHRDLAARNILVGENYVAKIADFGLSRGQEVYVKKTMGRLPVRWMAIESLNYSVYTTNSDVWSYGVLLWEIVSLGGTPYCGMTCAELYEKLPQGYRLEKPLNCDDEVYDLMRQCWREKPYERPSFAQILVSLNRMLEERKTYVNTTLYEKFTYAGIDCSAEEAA
Epidermal growth factor receptor, sequence (P00533 whole entry): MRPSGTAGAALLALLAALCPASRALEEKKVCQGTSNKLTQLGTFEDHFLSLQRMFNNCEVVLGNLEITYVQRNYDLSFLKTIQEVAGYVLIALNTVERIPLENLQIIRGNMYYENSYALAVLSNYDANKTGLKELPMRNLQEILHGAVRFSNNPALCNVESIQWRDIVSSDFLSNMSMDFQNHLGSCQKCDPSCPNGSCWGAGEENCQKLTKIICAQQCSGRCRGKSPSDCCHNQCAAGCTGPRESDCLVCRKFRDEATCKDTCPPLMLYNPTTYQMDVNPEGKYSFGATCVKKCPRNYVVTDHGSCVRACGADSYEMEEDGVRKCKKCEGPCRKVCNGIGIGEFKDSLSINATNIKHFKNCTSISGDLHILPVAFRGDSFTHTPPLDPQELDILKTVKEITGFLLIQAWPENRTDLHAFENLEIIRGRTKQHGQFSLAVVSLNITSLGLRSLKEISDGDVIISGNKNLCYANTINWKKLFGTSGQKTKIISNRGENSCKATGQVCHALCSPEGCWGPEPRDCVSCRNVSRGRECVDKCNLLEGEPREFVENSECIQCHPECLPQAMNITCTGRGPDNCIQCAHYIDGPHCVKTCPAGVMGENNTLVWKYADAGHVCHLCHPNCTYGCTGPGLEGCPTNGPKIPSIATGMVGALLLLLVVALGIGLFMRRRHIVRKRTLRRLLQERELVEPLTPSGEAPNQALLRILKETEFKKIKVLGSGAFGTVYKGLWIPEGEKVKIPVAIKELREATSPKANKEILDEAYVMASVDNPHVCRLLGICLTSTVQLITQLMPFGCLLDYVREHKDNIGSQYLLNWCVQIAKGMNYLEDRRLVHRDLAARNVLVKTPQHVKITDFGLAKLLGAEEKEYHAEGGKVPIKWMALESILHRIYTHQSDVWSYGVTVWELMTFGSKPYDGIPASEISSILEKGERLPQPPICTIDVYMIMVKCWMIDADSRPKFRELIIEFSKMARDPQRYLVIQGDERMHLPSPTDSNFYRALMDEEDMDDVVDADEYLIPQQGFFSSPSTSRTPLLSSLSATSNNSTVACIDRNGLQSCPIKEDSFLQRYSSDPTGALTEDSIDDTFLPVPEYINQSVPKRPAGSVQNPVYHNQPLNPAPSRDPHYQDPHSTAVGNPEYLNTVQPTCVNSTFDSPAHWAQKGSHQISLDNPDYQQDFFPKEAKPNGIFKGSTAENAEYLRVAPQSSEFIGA
Vascular endothelial growth factor receptor 3, sequence (P35916 whole entry): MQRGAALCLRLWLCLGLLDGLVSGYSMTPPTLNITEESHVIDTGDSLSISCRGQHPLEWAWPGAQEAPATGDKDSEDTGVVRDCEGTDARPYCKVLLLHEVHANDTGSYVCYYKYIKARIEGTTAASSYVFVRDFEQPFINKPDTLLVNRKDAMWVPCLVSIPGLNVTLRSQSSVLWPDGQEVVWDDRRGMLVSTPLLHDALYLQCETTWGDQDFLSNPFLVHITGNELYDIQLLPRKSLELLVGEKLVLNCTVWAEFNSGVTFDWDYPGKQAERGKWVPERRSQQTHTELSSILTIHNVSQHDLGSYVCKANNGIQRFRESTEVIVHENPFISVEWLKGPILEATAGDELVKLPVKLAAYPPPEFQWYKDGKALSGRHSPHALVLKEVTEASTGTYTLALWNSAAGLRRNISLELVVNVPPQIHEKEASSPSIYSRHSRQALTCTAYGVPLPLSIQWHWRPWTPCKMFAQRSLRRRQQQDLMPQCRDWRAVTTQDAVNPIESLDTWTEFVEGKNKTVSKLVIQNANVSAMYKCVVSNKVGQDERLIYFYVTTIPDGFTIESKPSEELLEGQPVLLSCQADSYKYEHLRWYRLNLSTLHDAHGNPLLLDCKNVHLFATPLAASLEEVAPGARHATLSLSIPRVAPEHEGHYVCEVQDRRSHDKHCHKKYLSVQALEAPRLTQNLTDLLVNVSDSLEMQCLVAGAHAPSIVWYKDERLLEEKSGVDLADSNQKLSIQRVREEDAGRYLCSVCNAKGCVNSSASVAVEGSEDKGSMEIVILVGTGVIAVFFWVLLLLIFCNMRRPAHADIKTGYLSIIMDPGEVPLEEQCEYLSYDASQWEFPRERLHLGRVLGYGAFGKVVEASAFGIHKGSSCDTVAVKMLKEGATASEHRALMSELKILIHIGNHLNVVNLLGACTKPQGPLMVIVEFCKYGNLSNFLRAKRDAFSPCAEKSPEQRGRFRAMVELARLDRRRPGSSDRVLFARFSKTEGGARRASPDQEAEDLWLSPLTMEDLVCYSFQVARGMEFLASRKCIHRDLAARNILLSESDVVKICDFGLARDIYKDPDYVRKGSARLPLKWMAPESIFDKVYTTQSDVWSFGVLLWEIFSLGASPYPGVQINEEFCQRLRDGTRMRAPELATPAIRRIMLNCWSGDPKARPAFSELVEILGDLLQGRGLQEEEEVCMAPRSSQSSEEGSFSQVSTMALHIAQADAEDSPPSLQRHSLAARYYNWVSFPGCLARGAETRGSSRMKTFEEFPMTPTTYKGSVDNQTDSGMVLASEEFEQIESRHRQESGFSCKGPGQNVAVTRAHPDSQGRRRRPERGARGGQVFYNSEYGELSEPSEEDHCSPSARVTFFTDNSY
Insulin-like growth factor 1 receptor, sequence (P08069 31-736 limits assumed): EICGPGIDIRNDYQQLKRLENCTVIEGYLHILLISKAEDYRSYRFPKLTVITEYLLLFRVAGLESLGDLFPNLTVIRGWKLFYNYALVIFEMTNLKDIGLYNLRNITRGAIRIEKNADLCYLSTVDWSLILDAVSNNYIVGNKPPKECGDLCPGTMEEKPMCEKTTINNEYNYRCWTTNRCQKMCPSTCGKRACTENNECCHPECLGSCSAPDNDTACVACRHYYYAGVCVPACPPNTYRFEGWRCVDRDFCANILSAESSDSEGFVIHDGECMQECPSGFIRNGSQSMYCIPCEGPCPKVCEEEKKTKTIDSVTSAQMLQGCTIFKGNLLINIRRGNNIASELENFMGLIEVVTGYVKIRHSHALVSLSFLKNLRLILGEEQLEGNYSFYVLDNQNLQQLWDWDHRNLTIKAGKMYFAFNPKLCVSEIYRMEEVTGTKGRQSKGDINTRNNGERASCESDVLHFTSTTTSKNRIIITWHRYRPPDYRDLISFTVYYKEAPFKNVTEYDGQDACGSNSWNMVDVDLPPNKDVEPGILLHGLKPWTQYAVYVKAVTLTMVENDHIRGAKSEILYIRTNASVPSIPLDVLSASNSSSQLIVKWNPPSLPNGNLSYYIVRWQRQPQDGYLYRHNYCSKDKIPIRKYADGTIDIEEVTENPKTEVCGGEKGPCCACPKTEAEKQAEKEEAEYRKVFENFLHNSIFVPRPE
Insulin-like growth factor 1 receptor, sequence (P08069 741-1367 limits assumed): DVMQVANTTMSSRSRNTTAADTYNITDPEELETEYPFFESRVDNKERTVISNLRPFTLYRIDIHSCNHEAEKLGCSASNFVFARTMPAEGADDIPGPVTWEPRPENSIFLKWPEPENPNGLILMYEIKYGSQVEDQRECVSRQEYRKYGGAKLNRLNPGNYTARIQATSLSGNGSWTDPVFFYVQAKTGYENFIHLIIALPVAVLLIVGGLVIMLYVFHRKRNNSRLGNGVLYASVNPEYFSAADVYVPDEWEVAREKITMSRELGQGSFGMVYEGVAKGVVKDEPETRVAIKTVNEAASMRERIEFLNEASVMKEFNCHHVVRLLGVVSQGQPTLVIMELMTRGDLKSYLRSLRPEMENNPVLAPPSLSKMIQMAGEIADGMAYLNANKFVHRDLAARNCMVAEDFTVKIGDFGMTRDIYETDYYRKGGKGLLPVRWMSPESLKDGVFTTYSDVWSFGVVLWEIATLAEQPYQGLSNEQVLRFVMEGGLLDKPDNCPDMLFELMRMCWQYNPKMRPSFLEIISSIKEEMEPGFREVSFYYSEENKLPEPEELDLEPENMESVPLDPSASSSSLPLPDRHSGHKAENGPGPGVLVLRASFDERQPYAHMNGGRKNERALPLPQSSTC

With `COc1cc2ncnc(Nc3ccc(F)c(Cl)c3)c2cc1OC`, the IC50 in test [1] came out at 2.6 µM; in [2] it was 6.5 µM; in test [3], 7.4 µM; in test [4], 3 µM; in test [5], 0.51 µM; in [6], 8.3 µM. The results for the IC50 in [7] and in [8] were 0.48 µM and 2.4 µM, respectively.
Consider `c1cc(Nc2ncnc3nc[nH]c23)cc(-c2nc3ccccc3s2)c1`, for which the IC50 in test [9] was 1.1 µM; in [1] it was over 10 µM; in test [2], over 10 µM; in test [3] it was over 10 µM; in test [10], 1.7 µM; in test [11], 1.2 µM. Moreover, the results for the 50% inhibitory concentration (IC50) in test [5] and in [7] were 0.87 µM and 0.84 µM, respectively.
As for `O=C(NC(=S)Nc1ccc(O)c(-c2nc3ccccc3s2)c1)c1ccc([N+](=O)[O-])cc1`, the half-maximal inhibitory concentration (IC50) is 0.19 µM in [9]; 0.7 µM in test [12]; 0.28 µM in [10]; 1 µM in test [4]; 0.31 µM in test [11]; 3 µM in test [5]. In addition, the IC50 amounted to 3 µM in [6], 0.61 µM in test [7], 0.9 µM in test [13] and 1 µM in test [8].
In the case of `COc1cc2ncnc(Nc3ccc(-c4nc5ccccc5s4)c(O)c3)c2cc1OC`, the concentration for half-maximal inhibition (IC50) in test [9] is over 10 µM; in test [1] it was over 10 µM; in test [2], over 10 µM; in test [3], 4.2 µM; in [10] it was 2.2 µM; in test [11] it was over 10 µM. The half-maximal inhibitory concentration (IC50) in test [5] is 6.9 µM; in [7], over 10 µM.
With `Cc1cc2c(Nc3ccc(-c4nc5ccccc5s4)cc3)ncnc2cc1Cl`, the half-inhibitory concentration (IC50) in test [9] is 0.3 µM; in [1] it was over 10 µM; in test [2], 2.7 µM; in test [3], over 10 µM; in test [10] it was over 10 µM; in test [11], 3.3 µM. In addition, the concentration for half-maximal inhibition (IC50) in test [5] is 1 µM; in test [6], over 10 µM; in [7], over 10 µM.
As to `COc1cc2ncnc(Nc3ccc(-c4nc5ccccc5s4)cc3)c2cc1OC`, the half-maximal inhibitory concentration (IC50) in test [9] was over 10 µM; in test [1], over 10 µM; in test [2], 0.35 µM; in test [3], 0.135 µM; in test [10], 1.5 µM; in test [11], over 10 µM. Also, the IC50 was 6.8 µM in [5] and over 10 µM in test [7].
On to `Fc1cc(-c2nc3ccccc3s2)ccc1Nc1ncnc2cc(Cl)ccc12`, for which the IC50 was 0.7 µM in test [9]; over 10 µM in test [1]; over 10 µM in test [2]; 0.51 µM in test [3]; over 10 µM in [10]; 1.1 µM in test [11]. Moreover, the IC50 in test [5] stood at 0.8 µM; in [6], 1 µM; in [7], 1 µM.
`COc1cc2nc(Nc3cc(C)n[nH]3)nc(Nc3ccc(-c4nc5ccccc5s4)cc3)c2cc1OC`: the half-inhibitory concentration (IC50) was 3 µM in test [9]; 2.15 µM in test [1]; 6 µM in test [2]; over 10 µM in test [3]; over 10 µM in test [10]; 1.65 µM in test [11]. For the same compound, the half-inhibitory concentration (IC50) is over 10 µM in test [5], over 10 µM in test [6] and 3.3 µM in test [7].
On to `Clc1ccc2c(Nc3ccc(-c4nc5ccccc5s4)cc3)ccnc2c1`, for which the concentration for half-maximal inhibition (IC50) in test [9] worked out at 0.63 µM; in test [1], 2.7 µM; in [2], 5.7 µM; in [3], 0.75 µM; in test [10], 5.3 µM; in test [11], 0.86 µM. In addition, the IC50 in test [5] was determined as 0.64 µM; in [6] it was 7 µM; in test [7], 1.4 µM.
For `COc1cc(Nc2ccnc3cc(Cl)ccc23)ccc1-c1nc2ccccc2s1`, the concentration for half-maximal inhibition (IC50) in [9], in [1], in [2], in test [3], in test [10] and in [11] was over 10 µM throughout. For the same compound, the IC50 in test [5], in test [6] and in test [7] was over 10 µM each time.
On to `c1cc(Nc2ncnc3[nH]ccc23)cc(-c2nc3ccccc3s2)c1`, for which the half-inhibitory concentration (IC50) in test [9] is over 10 µM; in test [2], over 10 µM; in test [3], 6.4 µM; in test [11] it was over 10 µM; in [5] it was over 10 µM; in test [6] it was 1.2 µM. Besides, the IC50 in test [7] was over 10 µM.
For the compound `COc1cc2ncnc(Nc3ccc(N4Cc5ccccc5C4)cc3)c2cc1OC`, the IC50 came out at 7.9 µM in test [1]; 5.3 µM in test [2]; 0.92 µM in test [3]; 6.6 µM in [14]; 1.6 µM in test [10]; 7.5 µM in test [11].
As for `Cc1cc(Nc2ccnc(Nc3cccc(-c4nc5ccccc5s4)c3)n2)n[nH]1`, the IC50 in [9] is 0.19 µM; in [1], 1.6 µM; in test [2], 0.16 µM; in [3], 2 µM; in [10], 1.9 µM; in test [4], over 10 µM. Moreover, the IC50 is 0.1 µM in test [11]; 7.5 µM in [5]; over 10 µM in [6]; over 10 µM in test [7]; 2.5 µM in [8].
`CNc1nc(Nc2ccc(-c3nc4ccccc4s3)cc2)c2cc(OC)c(OC)cc2n1`: the IC50 is over 10 µM in test [9]; 0.63 µM in test [1]; over 10 µM in [2]; over 10 µM in test [3]; over 10 µM in [10]; over 10 µM in test [11]. Moreover, the half-inhibitory concentration (IC50) in [5], in test [6] and in test [7] was over 10 µM throughout.
With `COc1cc2ncnc(Nc3ccc(-c4nc5ccccc5s4)cc3C)c2cc1OC`, the concentration for half-maximal inhibition (IC50) was over 10 µM in [9]; over 10 µM in test [1]; 4.4 µM in [2]; 3.7 µM in test [3]; over 10 µM in test [11]; 3.4 µM in test [5]. The IC50 in test [6] was 0.84 µM; in test [7], over 10 µM.
